In assay [1] the test system is normal human neonatal prepuce epidermis keratinized cells (NHEK(F)). In words: Human epidermis keratinized cell proliferation assay (WST-8 cell counting). The assay is classed as cell-based. To be noted: for overall effect on cell proliferation ability as compared with the control: summary of the 24 and 48 hour experiments. As to the method:
Human epidermis keratinized cells were cultured in the presence of chitin and chitosan as well as their derivatives, and change in proliferation ability of the cell was measured.
As the human epidermis cell, normal human neonatal prepuce epidermis keratinized cells (NHEK(F)) (Kurabo Biomedical, Osaka) were used.
A medium used for measuring NHEK(F) proliferation effect was obtained by adding 1 ml of a PSA solution (Kurabo Biomedical, Osaka) containing penicillin, streptomycin and amphoterin B, and 10% bovine fetus serum (Gibco, USA) to 500 ml of a basic medium for human epidermis keratinized cell HuMedia-KB2 (Kurabo Biomedical, Osaka).
Cells were cultured under 37° C., 5% CO2 and wet environments using a medium for proliferation and a flask for culturing (Lot No. 055522) (Nalge Nunc International, Denmark), and passed to quaternary culture and used in an experiment.
The medium was aspirated when proliferation of cells reach sub-confluent (60 to 80% of the flask bottom area), then, inside of the vessel was washed with HEPES, and 2 ml of trypsin was added to cause release of cells from the vessel bottom. The released cells were recovered by HEPES and added into the neutralization solution to terminate the reaction of trypsin, and then, precipitated by centrifugal separation (1100 rpm, 5 minutes), and the supernatant was discarded. The recovered cells were re-floated on a medium for proliferation, the live cell number was counted by a trypan blue discharge test, and then, transplanted into another flask for culturing so that the live cell concentration to the flask bottom area was […].
For measurement, cells were centrifugally separated, then, re-floated on a medium for measurement and adjusted at 30000 cells/ml to give a cell suspension which was then used.
Into each well of a 96-well multi-plate (Sumitomo Bakelite Co. Ltd., Tokyo), the cell suspension prepared in (1) was disseminated each in an amount of 100 μl at a concentration of 3000 cells/well. For stabilizing disseminated cells, previous culturing was carried out for 12 hours under 37° C., 5% CO2 and wet environments.
Next, into each well of the multi-plate, the chitin-based samples or chitosan-based samples controlled at respective concentrations were added each in an amount of 10 μl. The final concentrations of respective samples in this operation were 100, 10, 1 and 0.1 μg/ml, respectively. True culturing was carried out for 24 hours or 48 hours under 37° C., 5% CO2 and wet environments.
For counting the number of cells proliferated in the culturing, a reagent for measuring cell number (cell counting kit) WST-8 was added in an amount of 10 μl to each well of the multi-plate, and allowed to stand still under 37° C., 5% CO2 and wet environments for 1 to 4 hours to cause coloration. After coloration, the absorbance was measured using EASY READER EAR340AT (Medi-Con Corporation, Osaka). Numerical treatment and statistics of the measured data were carried out using a table calculation software (Microsoft Excel xp (R)).
The cell number and absorbance show a proportional correlation (FIG. 2, Table 2), and this graph gave a calibration curve:
A cell number in dissemination of 3000 was subtracted from the cell number obtained from this calibration curve to give a proliferated cell number (cells/well).

The test system of the next assay is skin deficient wound. In words: Skin deficient wound mouse model, skin regeneration. The assay is classed as in vivo. Here is the method: Fresh skin deficient wound was made using mice and a skin regeneration promoting effect of GlcNAc was studied. As a control, chitin in the form of gel (Chitosan Kowa K.K.) and physiological saline were used. (i) Eight 8-weeks female mice: BALB/c having a body weight of 20 to 25 g were used. In the experiment, one week-conditioning period was set. (ii) An N-acetyl-D-glucosamine (GlcNAc) powder (Seikagaku Kogyo K.K., Tokyo) was diluted in physiological saline so that its concentration was 10 mg/ml, and then, sterilized by filtration through a 0.22 μm millipore filter to give stock solution the stock solution was then diluted with sterile physiological saline to 10 μg/ml and used. (iii) chitin in the form of gel (Chitosan Kowa, Tokyo). Hereinafter, referred to as “chitin gel”. (iv) GlcNAc was blended in chitin gel so that its concentration was 10 μg/g and the blend was used. Hereinafter, the blend is referred to as “chitin gel+GlcNAc”. (i) Production of skin deficient model: Pentobarbital (trade name: Nembutal injection) was diluted 10-fold with physiological saline, and then, administered intraperitoneally to a mouse at 0.005 ml/g. After a sufficient anesthetic effect was confirmed, hair at the back of the mouse was shaved by a hair clipper, and the skin was disinfected with alcohol, and then, a round skin deficient region having a diameter of 5 mm was made using a 5 mm derma punch (FIG. 9). These eight mice were classified into “chitin gel group”, “chitin gel+GlcNAc group”, “GlcNAc group” and “physiological saline group” each containing two mice, and each group was applied once a day. (ii) “chitin gel group” and “chitin gel+GlcNAc group” were directly applied to the skin deficient region for 7 days each at 0.1 g/head, and “GlcNAc group” and “physiological saline group” were each at 1 ml/head. (iii) On 8th and later days, the crust formed was removed directly before application of each group, and application was carried out for further 8 days in the same manner as described above. The size of the skin damage repair region was measured on 8th and 16th days using calipers. Staining method: The skin deficiency repair region was collected, and fixed with a 10% neutral buffer formalin aqueous solution (formaldehyde solution). The repair region was excised to give a longitudinal section, and then, embedded in paraffin according to an ordinary method and sliced into 5 μm by a microtome. It was stained by hematoxylin-eosin staining.

Setting [2] is: 24 hours after addition, 0.1 μg/ml.
The mark [3] stands for this setting: 24 hours after addition, 1 μg/ml.
Where [4] appears, read: 24 hours after addition, 10 μg/ml.
[5] abbreviates: 24 hours after addition, 100 μg/ml.
Where [6] appears, read: 48 hours after addition, 0.1 μg/ml.
Setting [7] is: 48 hours after addition, 1 μg/ml.
Setting [8] is: 48 hours after addition, 10 μg/ml.
[9] abbreviates: 48 hours after addition, 100 μg/ml.
Where [10] appears, read: 5 mm skin deficient region, applied once a day for 16 days.
Setting [11] is: hematoxylin-eosin staining of the repair region.

With `N[C@H]1C(O)O[C@H](CO)[C@@H](O)[C@@H]1O` (stereo partly drawn) [GlcN, D-Glucosamine, reference compound], the “average cell proliferation number” value in assay [1] (setting [2]) amounted to 587 ± 134 cell/well; in assay [1] (setting [3]) it was 766 ± 114 cell/well; in assay [1] (setting [4]) it was 634 ± 65 cell/well; in assay [1] (setting [5]), 689 ± 34 cell/well; in assay [1] (setting [6]), 1616 ± 244 cell/well; in assay [1] (setting [7]) it was 2108 ± 344 cell/well. For the same molecule, the “average cell proliferation number” value is on record as 1839 ± 160 cell/well in assay [1] (setting [8]) and 1758 ± 424 cell/well in assay [1] (setting [9]). The “proliferation effect as compared with the control (p<0.05)” value is recorded as “significant proliferation stimulating effects” in assay [1] (24 hours, 1 μg/ml); “significant proliferation stimulating effects” in assay [1] (24 hours, 10 μg/ml); “significant proliferation stimulating effects” in assay [1] (24 hours, 100 μg/ml); “significant proliferation stimulating effect” in assay [1] (48 hours, 1 μg/ml). In addition, the “overall effect on cell proliferation ability as compared with the control” value in assay [1] was “significant effect of stimulating cell proliferation ability”.

As to `CC(=O)N[C@H]1C(O)O[C@H](CO)[C@@H](O)[C@@H]1O` (stereo partly drawn) [GlcNAc, N-Acetyl-D-Glucosamine], the “average cell proliferation number” value in assay [1] (setting [2]) stood at 601 ± 39 cell/well; in assay [1] (setting [3]), 774 ± 158 cell/well; in assay [1] (setting [4]) it was 636 ± 51 cell/well; in assay [1] (setting [5]) it was 628 ± 73 cell/well; in assay [1] (setting [6]) it was 1312 ± 169 cell/well; in assay [1] (setting [7]) it was 2372 ± 415 cell/well. Moreover, the “average cell proliferation number” value in assay [1] (setting [8]) stood at 2155 ± 175 cell/well; in assay [1] (setting [9]), 2128 ± 165 cell/well. Moreover, the “proliferation effect as compared with the control (p<0.05)” value in assay [1] (24 hours, 1 μg/ml) is listed as “significant proliferation stimulating effects”; in assay [1] (24 hours, 10 μg/ml), “significant proliferation stimulating effects”; in assay [1] (24 hours, 100 μg/ml) it was “significant proliferation stimulating effects”; in assay [1] (48 hours, 1 μg/ml) it was “significant proliferation stimulating effects”; in assay [1] (48 hours, 10 μg/ml), “significant proliferation stimulating effects”; in assay [1] (48 hours, 100 μg/ml) it was “significant proliferation stimulating effects”. For the same molecule, the “overall effect on cell proliferation ability as compared with the control” value in assay [1] is on record as “significant effect of stimulating cell proliferation ability”. Further, the “visual observation: epidermis / skin formation” value in the assay with skin deficient wound (setting [10]) is recorded as “complete cutization was recognized”. Besides, the “visual observation: excess granulation” value in the assay on skin deficient wound (setting [10]) is “excess granulation did not occur”. For the same molecule, the “overall skin regenerating effect in a mouse” value in the assay with skin deficient wound (compared with physiological saline and chitin gel) was “more excellent than physiological saline and chitin gel”. For the same molecule, in the assay with skin deficient wound (setting [11]), the “histological observation: hypodermis” value is “leaves a slight granulation tissue at the center portion”. Further, the “histological observation: regeneration of skin / epidermis” value in the assay with skin deficient wound (setting [11]) is listed as “skin regeneration is completed”.

The values are drawn from patent US20090048210A1, “AGENT FOR THERAPY OR TREATMENT OF WOUND” (priority 2004, published 2009).
